Source: US20220117903A1, “DRUG DELIVERY SYSTEM AND METHOD” (SEOUL NATIONAL UNIVERSITY R&DB FOUNDATION, priority 2019, published 2022)

System: 4T1 tumors
Experiment: Therapeutic efficacy in mice bearing 4T1 tumors
Type: in vivo
Conditions: doxorubicin equivalent 5 mg/kg, four treatments once every 3 days
Protocol: Referring to FIGS. 22 and 23, the amounts of doxorubicin in four groups are equivalent at 5 mg/kg, and all mice received a total of four treatments once every 3 days.

Q: How did the “effect on tumor progression / tumor growth” value turn out when `COc1cccc2c1C(=O)c1c(O)c3c(c(O)c1C2=O)C[C@@](O)(C(=O)CO)C[C@@H]3O[C@H]1C[C@H](N)[C@H](O)[C@H](C)O1` [free doxorubicin, doxorubicin] was run?
A: Its value is “Neither mice treated with free doxorubicin nor with MSNs-Tz/anti-CD11b-TCO without doxorubicin had an effect on tumor progression”.
